Tested on: SW480 cells
Assay: Colony formation, SW480 cells
Type: cell-based, human
Conditions: 0 to 32 μM for 24 h, then 10 days
Method: SW620 and SW480 cells were seeded in 6-well plates (1000 cells per well) and cultured in RPMI-1640 medium containing 10% FBS overnight. After the cells treatment with DMSO or compound ID-11 (4, 8, 16, and 32 μM) for 24 h, the culture medium was replaced by fresh RPMI-1640 medium (containing 10% FBS) and continue culturing for another 10 days. Then the cells were washed with PBS and fixed with methanol for 15 min and stained with 0.1% crystal violet for another 30 min. Finally, the cells were washed with running water, air-dried and visualised by photographing.

O=c1ccc2cc(CSC(=S)n3ccnc3)ccc2o1 [ID-11, (2-Oxo-2H-chromen-6-yl)methyl 1H-imidazole-1-carbodithioate] was tested, and the colony formation was “effectively inhibited”.

— PMC8759731, “Design, synthesis, and evaluation of novel coumarin-dithiocarbamate derivatives (IDs) as anti-colorectal cancer agents” (Journal of Enzyme Inhibition and Medicinal Chemistry, 2021)
